Assay results reported in ChEMBL document CHEMBL1201862, “PubChem BioAssay data set” (2004).
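Values below derive from 48-hour exposures of cells grown in 96-well plates, with endpoints linearly interpolated between the two concentrations bracketing the appropriate inhibition level. At the GI50, growth is halved.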 The source made the active and inactive calls. Cut-off read from the data, not from the text of the source: active = GI50 up to about 1.1 µM and inactive = higher.

Assays:
Test in all cases: NCI anticancer screen, dose series, 48 h
[1] = test system: A498
[2] = test system: MDA-MB-231
[3] = test system: SN12C
[4] = test system: SK-MEL-5
[5] = test system: M14
[6] = test system: HOP-92
[7] = test system: SK-MEL-2
[8] = test system: A549
[9] = test system: SF-539
[10] = test system: PC-3
[11] = test system: HCT-15
[12] = test system: HL-60
[13] = test system: K562
[14] = test system: Hs-578T
[15] = test system: SK-OV-3
[16] = test system: NCI-H522
[17] = test system: RPMI-8226
[18] = test system: UACC-257
[19] = test system: NCI-H226

| Structure (SMILES) | GI50 [1] | GI50 [2] | GI50 [3] | GI50 [4] | GI50 [5] | GI50 [6] | GI50 [7] | GI50 [8] | GI50 [9] | GI50 [10] | GI50 [11] | GI50 [12] | GI50 [13] | GI50 [14] | GI50 [15] | GI50 [16] | GI50 [17] | GI50 [18] | GI50 [19] |
| --- | --- | --- | --- | --- | --- | --- | --- | --- | --- | --- | --- | --- | --- | --- | --- | --- | --- | --- | --- |
| COc1ccc2c(c1)/C(=C\c1c(-c3ccccc3)nc3n1CCS3)C(=O)N2 | 5.05 µM (inactive) | 4.03 µM (inactive) | 12.4 µM (inactive) | 5.08 µM (inactive) | 6.9 µM (inactive) | 12.9 µM (inactive) | 5.25 µM (inactive) | 5.57 µM (inactive) | 5.9 µM (inactive) | 2.97 µM (inactive) | 4.38 µM | 3.04 µM (inactive) | 2.94 µM (inactive) | 11 µM (inactive) | 12.7 µM (inactive) | 4.63 µM (inactive) | 5.26 µM (inactive) | 12.2 µM (inactive) |  |
| Cc1nn(C(=O)c2ccc(Cl)cc2)c2c1C(c1ccc(Cl)cc1)SC(=N)N2 (centres undefined) |  | > 10 µM (inactive) | > 10 µM (inactive) | > 10 µM (inactive) | > 10 µM (inactive) | > 10 µM (inactive) | > 10 µM (inactive) | > 10 µM (inactive) | > 10 µM (inactive) | > 10 µM (inactive) | > 10 µM | > 10 µM (inactive) | > 10 µM (inactive) | > 10 µM (inactive) | > 10 µM (inactive) | > 10 µM (inactive) | > 10 µM (inactive) | > 10 µM (inactive) | > 10 µM (inactive) |
| CCOC(=O)C(=CNC(=S)c1ccncc1)C(=O)OCC | > 100 µM (inactive) | > 100 µM (inactive) | > 100 µM (inactive) | > 100 µM (inactive) | > 100 µM (inactive) | > 100 µM (inactive) | > 100 µM (inactive) | > 100 µM (inactive) | > 100 µM (inactive) | > 100 µM (inactive) | > 100 µM | > 100 µM (inactive) | > 100 µM (inactive) | > 100 µM (inactive) | > 100 µM (inactive) | > 100 µM (inactive) | > 100 µM (inactive) | > 100 µM (inactive) |  |
| C=C(C)COc1cc(/N=C(/S)OC(C)C)ccc1Cl |  | 15.4 µM (inactive) | 16.1 µM (inactive) | 19.5 µM (inactive) | 17.2 µM (inactive) | 13.6 µM (inactive) | 13.6 µM (inactive) | 12.7 µM (inactive) | 16.1 µM (inactive) | 14.7 µM (inactive) | 15.7 µM | 15.6 µM (inactive) | 11.7 µM (inactive) | 20.4 µM (inactive) | 19.3 µM (inactive) | 14.9 µM (inactive) | 20 µM (inactive) | 17.3 µM (inactive) | 17.9 µM (inactive) |
| CSc1c([S+](C)[O-])c2ccccc2n1C (centres undefined) | > 100 µM (inactive) | > 100 µM (inactive) | > 100 µM (inactive) | > 100 µM (inactive) | > 100 µM (inactive) |  | > 100 µM (inactive) | > 100 µM (inactive) | > 100 µM (inactive) | > 100 µM (inactive) | > 100 µM | > 100 µM (inactive) | > 100 µM (inactive) | > 100 µM (inactive) | > 100 µM (inactive) | 0.0142 µM (active) | > 100 µM (inactive) | > 100 µM (inactive) | > 100 µM (inactive) |
| CNC(=S)c1nnsc1N | 87.3 µM (inactive) | > 100 µM (inactive) | > 100 µM (inactive) | 14 µM (inactive) | > 100 µM (inactive) |  | > 100 µM (inactive) | > 100 µM (inactive) | > 100 µM (inactive) | 9.93 µM (inactive) | > 100 µM | 0.0115 µM (active) | 21.7 µM (inactive) | > 100 µM (inactive) | > 100 µM (inactive) | 9.14 µM (inactive) | 0.9 µM (active) | > 100 µM (inactive) | > 100 µM (inactive) |
| CN(C)CCNc1c([N+](=O)[O-])sc2ccc(Cl)cc12 | 23.3 µM (inactive) | 17.3 µM (inactive) | 7.66 µM (inactive) | 26.2 µM (inactive) | > 100 µM (inactive) |  | 33.5 µM (inactive) | 11.9 µM (inactive) | 14 µM (inactive) | 13.4 µM (inactive) | 7.76 µM | > 100 µM (inactive) | 7.52 µM (inactive) | 21.3 µM (inactive) | 25.5 µM (inactive) | 10.8 µM (inactive) | > 100 µM (inactive) |  | 15.8 µM (inactive) |
| CC(=O)N(CCc1ccccc1)C(C#N)c1ccccc1 (centres undefined) | 91.2 µM (inactive) | > 100 µM (inactive) | > 100 µM (inactive) | > 100 µM (inactive) | > 100 µM (inactive) |  | > 100 µM (inactive) | > 100 µM (inactive) | > 100 µM (inactive) | > 100 µM (inactive) | > 100 µM | > 100 µM (inactive) | > 100 µM (inactive) | > 100 µM (inactive) | > 100 µM (inactive) | > 100 µM (inactive) | > 100 µM (inactive) | > 100 µM (inactive) | > 100 µM (inactive) |
| C[n+]1c(/C=C/c2ccc(/C=N/NC(=O)c3ccc(C(=O)N/N=C/c4ccc(/C=C/c5cn6ccccc6[n+]5C)cc4)cc3)cc2)cn2ccccc21 |  | > 100 µM (inactive) | > 100 µM (inactive) | 1.89 µM (inactive) | > 100 µM (inactive) | > 100 µM (inactive) |  | > 100 µM (inactive) | > 100 µM (inactive) | > 100 µM (inactive) | > 100 µM | 23.4 µM (inactive) |  | > 100 µM (inactive) | > 100 µM (inactive) |  | > 100 µM (inactive) | > 100 µM (inactive) |  |
| C[C@]12CC[C@@H]3c4cc(Br)c(O)c(Br)c4CC[C@H]3[C@@H]1CC(Br)C2=O (some centres undefined) | 23.3 µM (inactive) | 6.62 µM (inactive) | 4.53 µM (inactive) |  | 7.03 µM (inactive) | 20.7 µM (inactive) | 12.2 µM (inactive) | 17.4 µM (inactive) | 7.52 µM (inactive) | 8.61 µM (inactive) | 2.65 µM | 2.59 µM (inactive) | 2.29 µM (inactive) | 5.86 µM (inactive) | 14.6 µM (inactive) |  |  | 15.8 µM (inactive) | 6.5 µM (inactive) |
| Cc1cn2c(/C=C3/C(=O)Nc4ccccc43)c(C)nc2s1 | 1.33 µM (inactive) | 1.48 µM (inactive) | 7.03 µM (inactive) | 0.516 µM (active) | 0.991 µM (active) | 14.4 µM (inactive) | 1.32 µM (inactive) | 2.02 µM (inactive) | 1.33 µM (inactive) | 1.3 µM (inactive) | 0.679 µM | 0.321 µM (active) | 0.431 µM (active) | 1.99 µM (inactive) | 3.15 µM (inactive) | 1.32 µM (inactive) | 1.75 µM (inactive) | 2.78 µM (inactive) |  |
| CC(=O)c1cc2c(s1)C(=O)c1scc(C(C)=O)c1C2=O | 2.34 µM (inactive) | 0.225 µM (active) | 0.273 µM (active) | 0.327 µM (active) | 0.736 µM (active) | 0.318 µM (active) | 0.586 µM (active) | 1.41 µM (inactive) | 1.21 µM (inactive) | 0.605 µM (active) | 0.308 µM |  | 0.272 µM (active) | 0.279 µM (active) | 1.96 µM (inactive) | 0.378 µM (active) | 0.209 µM (active) | 0.223 µM (active) | 1.69 µM (inactive) |
| CCOC(=O)C(Cc1ccc2c(c1)CCC2)(Cc1ccc2c(c1)CCC2)C(=O)OCC | > 100 µM (inactive) | 47.1 µM (inactive) |  | 33.8 µM (inactive) | 96.2 µM (inactive) | 26.9 µM (inactive) | 35.6 µM (inactive) | 47.5 µM (inactive) | 81.7 µM (inactive) | 32.5 µM (inactive) | 61.7 µM | 31.5 µM (inactive) | 58.5 µM (inactive) | > 100 µM (inactive) | > 100 µM (inactive) | 29.9 µM (inactive) | 55.7 µM (inactive) | 34.7 µM (inactive) |  |
| Cc1cc(N(CCC#N)CCC#N)ccc1C(/N=N/c1ccc([N+](=O)[O-])cc1)=N\NC(=O)c1ccccc1 | 25.9 µM (inactive) | 58.7 µM (inactive) | 43.3 µM (inactive) | 26.4 µM (inactive) | 86.9 µM (inactive) |  | 67 µM (inactive) | 57.1 µM (inactive) | 15 µM (inactive) | 41.2 µM (inactive) | 30.1 µM | 32.1 µM (inactive) | 22.9 µM (inactive) | 25.1 µM (inactive) | 49.5 µM (inactive) | 17 µM (inactive) | 75.9 µM (inactive) | 61.8 µM (inactive) | 39.1 µM (inactive) |
| NC(=O)N/N=C(\Cc1nc2ccc(Cl)cc2nc1O)C(=O)Nc1ccc(Cl)cc1Cl | > 100 µM (inactive) | > 100 µM (inactive) | > 100 µM (inactive) | > 100 µM (inactive) | > 100 µM (inactive) |  | > 100 µM (inactive) | > 100 µM (inactive) | > 100 µM (inactive) | > 100 µM (inactive) | > 100 µM | > 100 µM (inactive) | > 100 µM (inactive) | 57.4 µM (inactive) | > 100 µM (inactive) | > 100 µM (inactive) | > 100 µM (inactive) | > 100 µM (inactive) | 87.1 µM (inactive) |
| CCN(CC)c1c(-c2c(N(CC)CC)c(OC(C)=O)c3sccn3c2=O)c(=O)n2ccsc2c1OC(C)=O | > 100 µM (inactive) | 21.1 µM (inactive) | > 100 µM (inactive) | > 100 µM (inactive) | > 100 µM (inactive) | > 100 µM (inactive) | 93.8 µM (inactive) |  | 85.5 µM (inactive) | > 100 µM (inactive) | > 100 µM | > 100 µM (inactive) | > 100 µM (inactive) | 38.8 µM (inactive) | 73.3 µM (inactive) |  | > 100 µM (inactive) | > 100 µM (inactive) | 44.4 µM (inactive) |
